Patent US20040127492A1 (Pharmacia Corporation, priority 2002, published 2004)
Like-named read-outs stand apart in the source and are kept apart here.

Tests used:
MK-3 = MK-3 (Homo sapiens, UniProt Q16644); assay: MK-3 inhibition IC50 (similar method to MK-2, with appropriate modifications); type: biochemical; settings: read-out: MK-3 Avg. IC50
MAPKAPK2 (MK-2) = MAPKAPK2 (MK-2) (Homo sapiens, UniProt P49137); assay: Determination of MK-2 IC50 (HSP-peptide phosphorylation, anion exchange resin capture assay); type: biochemical
Method in brief: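 MAPKAPK2, preactivated by p38α with 0.25 mM ATP for 1 h at 30° C, used at 15 nM to phosphorylate HSP-peptide with 0.03 mM ATP plus [γ33P]ATP, pH 7.5, 2% DMSO, 30 min at 30° C. Labelled peptide counted after anion-exchange resin capture; IC50 from six ten-fold dilutions, triplicate.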

[1] = Table 1, phenoxypyrazole MK-2 inhibitors
[2] = Table 1, phenoxypyrazole MK-2 inhibitors, read-out: MK-2 Avg, IC50
[3] = Table 2, pyrazolylpyrazole MK-2 inhibitors
[4] = Table 2, pyrazolylpyrazole MK-2 inhibitors, read-out: MK-2 Avg. IC50

Chain of MAPKAPK2 (MK-2) (P49137 whole entry, species assumed): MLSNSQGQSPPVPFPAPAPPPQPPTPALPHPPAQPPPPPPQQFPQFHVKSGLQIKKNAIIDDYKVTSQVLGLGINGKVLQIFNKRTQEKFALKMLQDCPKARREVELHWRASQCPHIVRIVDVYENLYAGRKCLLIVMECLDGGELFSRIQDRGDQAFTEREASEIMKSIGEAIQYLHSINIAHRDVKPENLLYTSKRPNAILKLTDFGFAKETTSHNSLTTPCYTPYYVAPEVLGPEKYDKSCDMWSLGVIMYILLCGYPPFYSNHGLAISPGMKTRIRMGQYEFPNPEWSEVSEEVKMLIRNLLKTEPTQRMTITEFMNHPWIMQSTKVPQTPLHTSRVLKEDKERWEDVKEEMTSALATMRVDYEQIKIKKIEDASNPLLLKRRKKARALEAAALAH
Chain of MK-3 (Q16644 whole entry, species assumed): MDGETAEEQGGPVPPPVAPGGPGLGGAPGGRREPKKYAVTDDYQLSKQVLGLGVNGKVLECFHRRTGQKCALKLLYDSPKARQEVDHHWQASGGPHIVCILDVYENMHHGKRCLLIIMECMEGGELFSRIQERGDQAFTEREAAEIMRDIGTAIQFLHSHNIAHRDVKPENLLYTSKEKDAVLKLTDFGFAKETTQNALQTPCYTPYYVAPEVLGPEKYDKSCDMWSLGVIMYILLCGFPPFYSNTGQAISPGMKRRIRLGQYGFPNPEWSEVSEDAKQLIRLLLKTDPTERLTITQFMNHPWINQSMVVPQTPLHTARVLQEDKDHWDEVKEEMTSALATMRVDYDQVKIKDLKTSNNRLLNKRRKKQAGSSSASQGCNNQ

IC50 (MK-3; [1]) [µM]	IC50 (MAPKAPK2 (MK-2); [2]) [µM]	IC50 (MK-3) [µM]	IC50 (MAPKAPK2 (MK-2); read-out: MK-2 Avg. IC50) [µM]	SMILES	also measured
> 200	148	–	–	COc1cc2c(cc1-c1cccn1C(=O)OC(C)(C)C)-c1nn(CCCNC(=O)OC(C)(C)C)c(C(=O)O)c1CC2 [Example 58]	–
–	–	44.3	0.561	N#Cc1ccc(CCCNCCCn2nc3c(c2C(=O)O)CCc2cnccc2-3)cc1 [Example 58]	–
> 200	148	–	–	CC1Cc2cc(O)ccc2-c2n[nH]c(C(=O)O)c21 (stereo not drawn) [Example 59]	–
–	–	–	–	CCOC(=O)c1c2c(nn1CCNC(=O)OC(C)(C)C)-c1cnn(C(c3ccccc3)(c3ccccc3)c3ccccc3)c1CC2 [Example 59]	IC50 (MK-3; [3]): ≥ 200 µM; IC50 (MAPKAPK2 (MK-2); [4]): ≥ 200 µM
–	–	22.5	0.574	Cc1ccc(C(C)CCNCCCn2nc3c(c2C(=O)O)CCc2cnccc2-3)o1 (stereo not drawn) [Example 59]	–
> 200	148	–	–	C=CCC1Cc2c(C(=O)O)n[nH]c2-c2ccc(O)cc21 (stereo not drawn) [Example 60]	–
–	–	15.6	0.575	O=C(O)c1c2c(nn1CCCNCCc1ccc(-c3csc4ccccc34)cc1)-c1ccncc1CC2 [Example 60]	–
> 200	150	–	–	COCCOCOc1ccc2c(c1)CCc1c-2n[nH]c1C(=O)O [Example 61]	–
–	–	12.6	0.603	CC(=O)c1ccc(CCCNCCCn2nc3c(c2C(=O)O)CCc2cnccc2-3)cc1 [Example 63]	–
> 200	154	–	–	COC(=O)c1[nH]nc2c1CCc1cc(O)c(O)cc1-2 [Example 64]	–
–	–	22.8	0.62	NCCCn1nc2c(c1C(=O)O)CCc1cnccc1-2 [Example 64]	–
–	–	26.1	0.622	CS(=O)(=O)c1ccc(CCCNCCCn2nc3c(c2C(=O)O)CCc2cnccc2-3)cc1 [Example 65]	–
> 200	158	–	–	Cn1nc(C(N)=O)c2c1-c1ccc(O)cc1CC2 [Example 65]	–
–	–	–	–	CC(C)(C)OC(=O)NCCCn1nc2c(c1C(N)=O)CCc1[nH]ncc1-2 [Example 66]	IC50 (MK-3; [3]): ≥ 200 µM; IC50 (MAPKAPK2 (MK-2); [4]): ≥ 200 µM
–	–	6.87	0.632	COc1ccccc1-c1cc2c(cn1)CCc1c-2nn(CCCN)c1C(=O)O [Example 66]	–
> 200	165	–	–	COc1cc2c(cc1-c1ccncc1)-c1nn(CCCNC(=O)OC(C)(C)C)c(C(=O)O)c1CC2 [Example 67]	–
–	–	–	–	N#CCCn1nc(C(N)=O)c2c1-c1cn[nH]c1CC2 [Example 67]	IC50 (MK-3; [3]): ≥ 200 µM; IC50 (MAPKAPK2 (MK-2); [4]): ≥ 200 µM
–	–	10	0.663	NCc1cccc(-c2ccc(CCNCCCn3nc4c(c3C(=O)O)CCc3cnccc3-4)cc2)c1 [Example 67]	–
196	173	–	–	CC1Cc2cc(O)ccc2-c2n[nH]c(C(N)=O)c21 (stereo not drawn) [Example 68]	–
–	–	–	–	NC(=O)c1[nH]nc2c1CCc1c-2cnn1COCc1ccccc1 [Example 68]	IC50 (MK-3; [3]): ≥ 200 µM; IC50 (MAPKAPK2 (MK-2); [4]): ≥ 200 µM
–	–	43.1	0.706	NCCn1nc2c(c1C(=O)O)CCc1cnccc1-2 [Example 68]	–
–	–	–	–	CCOC(=O)c1[nH]nc2c1CCc1c-2cnn1CCO [Example 69]	IC50 (MK-3; [3]): ≥ 200 µM; IC50 (MAPKAPK2 (MK-2); [4]): ≥ 200 µM
> 200	176	–	–	CNC(=O)c1[nH]nc2c1CCc1cc(O)ccc1-2 [Example 69]	–
–	–	11.9	0.765	O=C(O)c1c2c(nn1CCCNCCc1ccc([N+](=O)[O-])cc1)-c1ccncc1CC2 [Example 69]	–
> 200	176	–	–	CCOC(=O)c1[nH]nc2c1CCc1cc(O)ccc1-2 [Example 70]	–
–	–	–	–	NC(=O)c1[nH]nc2c1CCc1c-2cnn1CCO [Example 70]	IC50 (MK-3; [3]): ≥ 200 µM; IC50 (MAPKAPK2 (MK-2); [4]): ≥ 200 µM
–	–	44.8	0.801	O=C(O)c1c2c(nn1CCCNCCc1ccc(-c3ccccc3C(F)(F)F)cc1)-c1ccncc1CC2 [Example 70]	–

IC50 (MK-3; [1]) [µM]	IC50 (MAPKAPK2 (MK-2); [2]) [µM]	IC50 (MK-3) [µM]	IC50 (MAPKAPK2 (MK-2); read-out: MK-2 Avg. IC50) [µM]	SMILES	also measured
> 200	179	–	–	Cn1nc2c(c1C(N)=O)CCc1cc(O)ccc1-2 [Example 71]	–
–	–	–	–	O=C(O)c1nn(-c2ccccc2)c2c1CCc1[nH]ncc1-2 [Example 71]	IC50 (MK-3; [3]): ≥ 200 µM; IC50 (MAPKAPK2 (MK-2); [4]): ≥ 200 µM
–	–	35	0.825	O=C1NC(CO)Cn2nc3c(c21)CCc1cnccc1-3 (stereo not drawn) [Example 71]	–
> 200	181	–	–	CC(C)(C)OC(=O)NCCCn1nc2c(c1C(=O)O)CCc1cc(O)ccc1-2 [Example 72]	–
–	–	–	–	CCOC(=O)c1c2c(nn1CC(F)(F)F)-c1cn[nH]c1CC2 [Example 72]	IC50 (MK-3; [3]): ≥ 200 µM; IC50 (MAPKAPK2 (MK-2); [4]): ≥ 200 µM
–	–	17.2	0.89	Cc1ccc(CCNCCCn2nc3c(c2C(=O)O)CCc2cnccc2-3)cc1 [Example 72]	–
–	–	–	–	CCOC(=O)c1nn(CC(F)(F)F)c2c1CCc1c-2cnn1C(c1ccccc1)(c1ccccc1)c1ccccc1 [Example 73]	IC50 (MK-3; [3]): ≥ 200 µM; IC50 (MAPKAPK2 (MK-2); [4]): ≥ 200 µM
> 200	184	–	–	O=C(NCCO)c1[nH]nc2c1CCc1cc(O)ccc1-2 [Example 73]	–
–	–	27.8	0.924	O=C1NC(CNCCc2cccs2)Cn2nc3c(c21)CCc1cnccc1-3 (stereo not drawn) [Example 73]	–
–	–	–	–	C=CCn1nc2c(c1C(=O)OCC)CCc1c-2cnn1C(c1ccccc1)(c1ccccc1)c1ccccc1 [Example 74]	IC50 (MK-3; [3]): ≥ 200 µM; IC50 (MAPKAPK2 (MK-2); [4]): ≥ 200 µM
–	–	34.8	0.931	CCOc1ccc(CCNCCCn2nc3c(c2C(=O)O)CCc2cnccc2-3)cc1 [Example 74]	–
> 200	> 200	–	–	C=CCn1nc2c(c1C(N)=O)CCc1cc(OCOCCOC)ccc1-2 [Example 80]	–
–	–	–	–	CCOC(=O)c1nn(CC(F)(F)F)c2c1CCc1[nH]ncc1-2 [Example 80]	IC50 (MK-3; [3]): 124 µM; IC50 (MAPKAPK2 (MK-2); [4]): ≥ 200 µM
–	–	30.3	1.18	O=C(O)c1c2c(nn1CCCNCCC(c1ccccc1)c1ccccc1)-c1ccncc1CC2 [Example 80]	–
–	–	48.1	2.33	COc1ccc(CCNCCCn2nc3c(c2C(=O)O)CCc2cnccc2-3)cc1OC [Example 100]	–
–	–	–	–	O=C(O)CCn1nc(C(=O)O)c2c1-c1cn[nH]c1CC2 [Example 100]	IC50 (MK-3; [3]): ≥ 200 µM; IC50 (MAPKAPK2 (MK-2); [4]): ≥ 200 µM
–	–	–	–	CCOC(=O)Cn1nc2c(c1C(=O)OCC)CCc1[nH]ncc1-2 [Example 113]	IC50 (MK-3; [3]): ≥ 200 µM; IC50 (MAPKAPK2 (MK-2); [4]): ≥ 200 µM
–	–	174	3.01	NCCCCn1nc2c(c1C(=O)O)CCc1cnccc1-2 [Example 113]	–
> 200	> 200	–	–	O=C(O)c1n[nH]c2c1CC(c1ccccc1)c1cc(O)ccc1-2 (stereo not drawn) [Example 113]	–
–	–	25.2	4.68	O=C1NCCCn2nc3c(c21)CCc1cnc(Nc2ccccc2)cc1-3 [Example 131]	–
> 200	> 200	–	–	CCOC(=O)c1c2c(nn1C)-c1ccc(O)cc1CC2 [Example 157]	–
–	–	45.4	9.58	O=C1NCCn2nc3c(c21)CCc1cnc(N2Cc4ccccc4C2)cc1-3 [Example 157]	–
> 200	> 200	–	–	COc1ccc(-n2nc(C(N)=O)c3c2-c2ccc(O)cc2CC3)cc1 [Example 158]	–
–	–	133	9.73	Nc1ccc(NCCCn2nc3c(c2C(=O)O)CCc2cnccc2-3)cc1 [Example 158]	–
> 200	> 200	–	–	COC(=O)c1nn(-c2ccc(Cl)cc2)c2c1CCc1cc(OC)ccc1-2 [Example 159]	–
–	–	22.8	9.84	O=C1NCCn2nc3c(c21)CCc1cnc(N2CCC(O)CC2)cc1-3 [Example 159]	–
> 200	> 200	–	–	COc1ccc2c(c1)CCc1c(C(=O)O)nn(-c3ccc(Cl)cc3)c1-2 [Example 160]	–
